Assay results taken from US7557127B2, “HDAC inhibitor” (Astellas Pharma Inc., priority 2004, dated 2009).
Counter-ions that a name gives are not always drawn.

How the values were obtained:
[1] = tested on: splenic cells of Lewis rats; test: Test 2: Determination of T-Cell Growth Inhibitor Activity (T lymphocyte blastogenesis test); type: cell-based; settings: Rattus norvegicus, Concanavalin A added, 72 hours, AlamarBlue Assay, read-out: Test 2: T-cell growth inhibitory activity IC50
Protocol: Test 2: Determination of T-Cell Growth Inhibitor Activity The T lymphocyte blastogenesis test was performed in microtiter plates with each well containing 1.5×10^5 splenic cells of Lewis rats in 0.1 mL RPMI-1640 medium supplemented with 10% fetal bovine serum (FBS), […] 2-mercaptoethanol, penicillin (100 units/mL) and streptomycin (100 μg/mL), to which Concanavalin A (1 μl/mL) was added. The cells were incubated at 37° C. in a humidified atmosphere of 5% CO2 for 72 hours. After the culture period, suppressive activities of the test compounds in T lymphocyte blastogenesis were quantified by AlamarBlue (trademark) Assay. The test samples were dissolved in DMSO and further diluted with RPMI-1640 medium and added to the culture. The activities of the test compounds were expressed as IC50.

[2] = target: T1, human histone deacetylase; test: Test 1: Determination of Histone Deacetylase Inhibitor Activity; type: biochemical; settings: enzyme partially purified from human T cell leukemia Jurkat cells; [3H] acetyl-labeled histones; 25° C., 30 minutes; read-out: Test 1: HDAC inhibitory activity IC50
T1 construct: The human histone deacetylase was partially purified from human T cell leukemia Jurkat cells
Protocol: Test 1: Determination of Histone Deacetylase Inhibitor Activity
The partial purification of human histone deacetylase, the preparation of [^3H] acetyl histones, and the assay for histone deacetylase activity were performed basically according to the method as proposed by Yoshida et al. as follows.
Partial Purification of Human Histone Deacetylase
The human histone deacetylase was partially purified from human T cell leukemia Jurkat cells. Jurkat cells (5×10^8 cells) were suspended in 40 mL of the HDA buffer consisting of 15 mM potassium phosphate, pH 7.5, 5% glycerol and 0.2 mM EDTA. After homogenization, nuclei were collected by centrifugation (35,000×g, 10 min) and homogenized in 20 mL of the same buffer supplemented with 1 M (NH4)2SO4. The viscous homogenate was sonicated and clarified by centrifugation (35,000×g, 10 min), and the deacetylase was precipitated by raising the concentration of (NH4)2SO4 to 3.5 M. The precipitated protein was dissolved in 10 mL of the HDA buffer and dialyzed against 4 liters of the same buffer. The dialyzate was then loaded onto a DEAE-cellulose (Whatman DE52) column (25×85 mm) equilibrated with the same buffer and eluted with 300 mL of a linear gradient (0-0.6 M) of NaCl. A single peak of histone deacetylase activity appeared between 0.3 and 0.4 M NaCl.
Preparation of [^3H] Acetyl Histone
To obtain [^3H] acetyl-labeled histone as the substrate for the histone deacetylase assay, 1×10^8 cells of Jurkat in 20 mL of RPMI-1640 medium (supplemented with 10% FBS, penicillin (50 units/mL) and streptomycin (50 μg/mL)) were incubated with 300 MBq [^3H] sodium acetate in the presence of 5 mM sodium butyrate for 30 minutes in 5% CO2-95% air atmosphere at 37° C. in a 75 cm^2 flask, harvested into a centrifuge tube (50 mL), collected by centrifugation at 1000 rpm for 10 minutes, and washed once with phosphate-buffered saline. The washed cells were suspended in 15 mL of ice-cold lysis buffer (10 mM Tris-HCl, 50 mM sodium bisulfite, 1% Triton X-100, 10 mM MgCl2, 8.6% sucrose, pH 6.5). After Dounce homogenization (30 stroke), the nuclei were collected by centrifugation at 1000 rpm for 10 minutes, washed 3 times with 15 mL of the lysis buffer, and once with 15 mL of ice-cooled washing buffer (10 mM Tris-HCl, 13 mM EDTA, pH 7.4) successively. The pellet was suspended in 6 mL of ice-cooled water using a mixer, and 68 μl of H2SO4 was added to the suspension to give a concentration of 0.4 N. After incubation at 4° C. for 1 hour, the suspension was centrifuged for 5 minutes at 15, 000 rpm, and the supernatant was taken and mixed with 60 mL of acetone. After overnight incubation at −20° C., the coagulated material was collected by microcentrifugation, air-dried, and stored at −80° C.
Assay for Histone Deacetylase Activity
For the standard assay, 10 μl of [^3H] acetyl-labeled histones were added to 90 μl of the enzyme fraction, and the mixture was incubated at 25° C. for 30 minutes. The reaction was stopped by addition of 10 μL of HCl. The released [^3H] acetic acid was extracted with 1 mL of ethyl acetate, and 0.9 mL of the solvent layer was taken into 10 mL of toluene scintillation solution for determination of radioactivity.

Question: Which results are given for O=C(/C=C/c1ccc(N[C@@H]2CCN(Cc3ccccc3)C2)nc1)NO [Example 3, (2E)-3-(6-{[(3R)-1-Benzyl-3-pyrrolidinyl]amino}-3-pyridyl)-N-hydroxyacrylamide dihydrochloride]?
Answer: IC50 [1]: < 25 nM; IC50 [2]: < 10 nM

Question: For O=C(/C=C/c1ccc(N[C@@H]2CCN(CC3CCCCC3)C2)nc1)NO [Example 60, (2E)-3-(6-{[(3R) 1-(Cyclohexylmethyl)-3-pyrrolidinyl]amino}-3-pyridyl)-N-hydroxyacrylamide dihydrochloride], which IC50 [1] is on record?
Answer: < 25 nM

Question: What about the IC50 [2] of the same compound?
Answer: < 10 nM

Question: For O=C(/C=C/c1cnc(N[C@@H]2CCN(Cc3ccc(Cl)cc3)C2)cn1)NO [Example 74, (2E)-3-(5-{[(3R)-1-(4-chlorobenzyl)-3-pyrrolidinyl]amino}-2-pyrazinyl)-N-hydroxyacrylamide dihydrochloride], which IC50 [1] is on record?
Answer: < 25 nM

Question: And the IC50 [2]?
Answer: < 10 nM

Question: O=C(/C=C/c1cnc(N[C@@H]2CCCN(Cc3ccccc3)C2)cn1)NO [Example 76, (2E)-3-(5-{[(3R)-1-Benzyl-3-piperidinyl]amino}-2-pyrazinyl)-N-hydroxyacrylamide dihydrochloride] was tested. Which IC50 [1] did it give?
Answer: < 25 nM

Question: And the IC50 [2]?
Answer: < 10 nM

Question: For O=C(/C=C/c1cnc(N[C@@H]2CCN(Cc3ccccc3)C2)cn1)NO [Example 82, (2E)-3-(5-{[(3R)-1-Benzyl-3-pyrrolidinyl]amino}-2-pyrazinyl)-N-hydroxyacrylamide dihydrochloride], which IC50 [1] is on record?
Answer: < 25 nM

Question: And the IC50 [2]?
Answer: < 10 nM

Question: With O=C(/C=C/c1cnc(N[C@@H]2CCN(Cc3ccc(F)cc3)C2)cn1)NO [Example 116, (2E)-3-(5-{[(3R)-1-(4-fluorobenzyl)-3-pyrrolidinyl]amino}-2-pyrazinyl)-N-hydroxyacrylamide dihydrochloride] as the compound, how does the IC50 [1] read?
Answer: < 25 nM

Question: And the IC50 [2]?
Answer: < 10 nM

Question: O=C(/C=C/c1cnc(N[C@@H]2CCN(CCc3ccccc3)C2)cn1)NO [Example 119, (2E)-N-hydroxy-3-(5-{[(3R)-1-(2-phenylethyl)-3-pyrrolidinyl]amino}-2-pyrazinyl)acrylamide dihydrochloride] was tested. Which IC50 [1] did it give?
Answer: < 25 nM

Question: And the IC50 [2]?
Answer: < 10 nM

Question: What does the source list for O=C(/C=C/c1cnc(N[C@@H]2CCN(C3CCCCC3)C2)cn1)NO [Example 123, (2E)-3-(5-{[(3R)-1-cyclohexyl-3-pyrrolidinyl]amino}-2-pyrazinyl)-N-hydroxyacrylamide dihydrochloride]?
Answer: IC50 [1]: < 25 nM; IC50 [2]: < 10 nM

Question: Which IC50 [1] does the source give for O=C(/C=C/c1cnc(N[C@@H]2CCN(C(=O)C3CCCCC3)C2)c(Cl)c1)NO [Example 174, (2E)-3-(5-chloro-6-{[(3R)-1-(cyclohexylcarbonyl)-3-pyrrolidinyl]amino}-3-pyridinyl)-N-hydroxyacrylamide hydrochloride] here?
Answer: < 25 nM

Question: What about the IC50 [2] of the same compound?
Answer: < 10 nM

Question: Which results are given for CC1=C(CN2CC[C@@H](Nc3ccc(/C=C/C(=O)NO)cn3)C2)C(C)(C)CCC1 [Example 189, (2E)-N-hydroxy-3-[6-({(3R)-1-[(2,6,6-trimethyl-1-cyclohexen-1-yl)methyl]-3-pyrrolidinyl}amino)-3-pyridinyl]acrylamide dihydrochloride]?
Answer: IC50 [1]: < 25 nM; IC50 [2]: < 10 nM
